Patent publication US5190940A, “Cholesterol ester hydrolase inhibitors” (American Home Products Corporation, priority 1991, dated 1993)
Read-outs that look alike come from different tables or passages of the source.

Assays:
[1] = test system: Absorption of ^14 C-Chol.; assay: In vivo cholesterol absorption study in normal rats, serum radioactivity after oral [4-^14 C] cholesterol; settings: suspended in olive oil, normal rat, 6 hr
Method: The in vivo cholesterol absorption studies were conducted in normal rats by oral administration of the compound being tested suspended in olive oil followed by oral administration of [4-^14 C] cholesterol in propylene glycol, otherwise following the procedure of Cayen et al., J. Lipid Res. 20 162 (1979). The serum radioactivity was measured at six hours after dosing. The results of this study are reported in the following Table, where available, as percent decrease compared to control.

[2] = molecular target: T1, cholesterol esterase (cholesterol ester hydrolase; CEH) (Bos taurus, UniProt P30122); assay: Inhibition of cholesteryl ester formation by cholesterol esterase (CEH), in vitro; assay type: biochemical, bovine
T1 construct: purchased Sigma C-1892; host or cells: bovine pancreas
T1 sequence (P30122 19-597): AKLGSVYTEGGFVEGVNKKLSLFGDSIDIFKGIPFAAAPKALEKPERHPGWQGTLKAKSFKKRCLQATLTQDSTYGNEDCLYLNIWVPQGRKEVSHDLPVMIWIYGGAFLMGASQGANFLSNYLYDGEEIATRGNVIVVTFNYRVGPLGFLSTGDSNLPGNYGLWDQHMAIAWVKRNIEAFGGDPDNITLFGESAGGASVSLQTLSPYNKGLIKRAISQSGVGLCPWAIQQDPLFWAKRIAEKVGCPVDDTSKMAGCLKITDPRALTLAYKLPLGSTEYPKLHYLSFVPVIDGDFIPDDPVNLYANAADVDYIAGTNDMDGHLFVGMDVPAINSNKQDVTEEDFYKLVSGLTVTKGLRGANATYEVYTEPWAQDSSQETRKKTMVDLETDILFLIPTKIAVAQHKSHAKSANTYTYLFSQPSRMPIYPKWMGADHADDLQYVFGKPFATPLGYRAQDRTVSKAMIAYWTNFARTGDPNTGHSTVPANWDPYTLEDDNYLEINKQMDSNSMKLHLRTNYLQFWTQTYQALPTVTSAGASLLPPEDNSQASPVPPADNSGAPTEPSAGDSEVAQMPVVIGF
Method: The ability of the compounds of this invention to inhibit the formation of cholesteryl esters and thereby interfere with and prevent assimilation of cholesterol into the lymphatic system and ultimately the blood stream was established by incubating the compounds at 37° C. with a mixture of cholesterol and oleic acid in the presence of buffered cholesterol esterase [([…]) Sigma No. C-1892, from bovine pancreas] and measuring the amount of ester formed, according to the procedure of Field, J. of Lipid Research, 25 389 (1984).

[3] = 37° C., cholesterol and oleic acid, buffered cholesterol esterase from bovine pancreas, read-out: IC50 Against CEH (concentration that inhibits one-half of the ester formation)

Compound	Effects on Absorption of ^14 C-Chol., percent decrease compared to control ([1]; 250 mg/kg) [%]	IC50 [2, 3] [µM]	IC50 [2] [µM]	Effects on Absorption of ^14 C-Chol., percent decrease compared to control ([1]; 100 mg/kg) [%]
O=C(Oc1ccccc1-c1ccccc1)N1CCCCC1 [Example 7, 1-Piperidinecarboxylic acid[1,1'-biphenyl]-2-yl ester]	19	0.08		
CN1CCN(C(=O)Oc2ccccc2-c2ccccc2)CC1 [Example 12, 4-Methyl-1-piperazinecarboxylic acid[1,1'-biphenyl]-2-yl ester]			25	
CCCCCCCCNC(=O)Oc1ccccc1-c1ccccc1 [Example 1, Octylcarbamic acid[1.1'-biphenyl]-2-yl ester]			1.5	
O=C(NC1CCCCC1)Oc1ccccc1-c1ccccc1 [Example 3, Cyclohexylcarbamic acid[1,1'-biphenyl]-2-yl ester]			5	21
CCCCCCCN(Cc1ccc(CC(C)(C)C)cc1)C(=O)Oc1ccccc1-c1ccccc1 [Example 2, [[4-(2,2-Dimethylpropyl)phenyl]methyl]heptylcarbamic acid[1,1'-biphenyl]-2-yl ester]			100	
O=C(NCC1CCCCC1)Oc1ccccc1-c1ccccc1 [Example 4, (Cyclohexylmethyl)carbamic acid[1,1'-biphenyl]-2-yl ester]			3	21
O=C(NCCCCc1ccccc1)Oc1ccccc1-c1ccccc1 [Example 5, (4-Phenylbutyl)carbamic acid[1,1'-biphenyl]-2-yl ester]	46		0.25	
O=C(Oc1ccccc1-c1ccccc1)N1CCC(c2ccccc2)CC1 [Example 9, 4-Phenyl-1-piperidinecarboxylic acid[1.1'-biphenyl]-2-yl ester]		1.9		11
O=C(Oc1ccccc1-c1ccccc1)N1CCSCC1 [Example 11, 4-Thiomorpholinecarboxylic acid[1.1'-biphenyl]-2-yl ester]		1.2		21
O=C(Oc1ccccc1-c1ccccc1)N1CCN(c2ccccc2)CC1 [Example 13, 4-Phenyl-1-piperazinecarboxylic acid[1,1'-biphenyl]-2-yl ester]		53		
CC1CCN(C(=O)Oc2ccccc2-c2ccccc2)CC1 [Example 8, 4-Methyl-1-piperidinecarboxylic acid[1,1'-biphenyl]-2-yl ester]		0.8		
CC1(C)CCCN(C(=O)Oc2ccccc2-c2ccccc2)C1 [Example 6, 3,3-Dimethyl-1-piperidinecarboxylic acid[1,1'-biphenyl]-2-yl ester]		38		
O=C(Oc1ccccc1-c1ccccc1)N1CCOCC1 [Example 10, 4-Morpholinecarboxylic acid[1.1'-biphenyl]-2-yl ester]			26	
